According to US20170266166A1, “Compositions and Methods to Inhibit Estrogen Receptor Beta for the Treatment of Renal Cell Carcinoma” (University of Rochester, priority 2014, published 2017):

Columns and labels:
786-O cells [1] = test: RCC cell growth, MTT assay; format: cell-based, human; conditions: 10 nM, 786-O (high endogenous ERβ), MTT and colony forming assays
Experimental: (§1) FIG. 2, comprising FIGS. 2A-2F, depicts the results of experiments comparing ERβ expression in RCC cell lines and estrogen/ERβ effects on RCC cell growth. […] Expression of ERα was not detected in tested RCC cells. ERβ has the highest expression level in 786-O and lowest in A498. Breast cancer cell MCF-7 was used as a positive control. […] The growth rate of 786-O cells (with high endogenous ERβ) is increased in the presence of 17β-estradiol (10 nM) as compared with the control Etoh). […] FIGS. 2D-2E show changes in ERβ expression levels can affect the RCC cell growth. A lentivirus system was used to knock-down ERβ in RCC 786-O cells (by lenti-ERβ-shRNA), or to increase ERβ in A498 cells (by lenti-ERβ cDNA). Cell growth rates were determined by MTT assay.
(§2) RCC cells were seeded in 24-well plates (5000 cells/200 μl medium per well) and cultured for 0, 2, 4 and 6 days. Cells were harvested and cell number was calculated using MTT agent.
(§3) To examine the ERβ roles on RCC cell growth, the lentiviral ERβ cDNA and shRNA were used to change the expression of ERβ in 2 RCC cell lines, A498 (low endogenous ERβ) and 786-O (high endogenous ERβ), respectively. 10 nM […] estradiol (E2) was used to activate ERβ and examine the growth changes using MTT assay and colony forming assays. […] Supportively, knocking-down ERβ by ERβ-siRNA in RCC 786-O cells suppressed cell growth, sh-Luciferase as control (FIG. 2D). […]

A498 cells [2] = test: RCC cell growth, MTT assay; format: cell-based, human; conditions: 10 nM, A498 (little ERβ)
Experimental: as §1, §2, §3

786-O cells [3] = test: transwell RCC cell migration assay; format: cell-based, human; conditions: for cell migration: 10 nM
A498 cells [4] = test: transwell RCC cell migration assay; format: cell-based, human
786-O tumors = test: anti-estrogen treatment of mice carrying 786-O RCC tumors (IVIS imaging, tumor weight, metastasis); format: in vivo; conditions: for mice that developed distal metastasis: ip injection every other day, after 4 weeks of treatments, 3 of the 6 DMSO treated mice developed metastasis; for RCC tumor growth and metastasis (IVIS imaging, tumor weights): mouse RCC model, result in words
Source text: Results of IVIS imaging, tumor size, and tumor weights are shown and compared.
The Fe-NTA transformed human renal carcinoma cell lines 7860.sh-ERβ/7860.sh-Luc and A498 hERβ/Vec were directly injected into the renal capsule of nude mice. After anesthesia, the back skin was lifted with a pair of blunt forceps and cut along the midline with a pair of scissors creating an incision approximately an inch in length; the dermis was separated from the underlying body wall on both sides of the incision for bilateral grafting or on one side only (blunt dissection). The animal was placed on its side, and the location of the kidney identified by viewing it through the body wall. A small incision ([…]) was made in the body wall just slightly longer than the long axis of the kidney. The exteriorized kidney was allowed to rest on the body wall. We used a syringe to inject the cells at the cell numbers of 1×10^6, both with matrigel (1:1) under the renal capsule.
ERβ antagonists, PHTPP and ICI, inhibit RCC cell growth and cell invasion Knockdown of ERβ reduced RCC cells growth and Invasion. It was then investigated whether PHTPP (ERβ selective antagonist) and ICI 182,780 (ICI, anti-estrogen) have therapeutic effects to reduce RCC tumor growth and metastasis in vivo. […] Also, both anti-estrogens have been used to treat mouse breast cancer models. The same doses of PHTPP and ICI were applied in mice carrying 786-O tumors DMSO (mock control), PHTPP and ICI were administrated via intraperitoneal (ip) injection every other day. IVIS imaging was applied to monitor tumor growth and distal metastasis. After 4 weeks of treatments, mice were sacrificed for tumor analysis. […] All the mice had developed RCC by the time they were sacrificed. […] In addition to PHTPP and ICI, tamoxifen was also tested on mouse RCC growth.

ERβ = ERβ (Homo sapiens, UniProt Q92731); conditions: 10 μM, previous reports; cited from earlier work
ERβ, sequence (Q92731 whole entry): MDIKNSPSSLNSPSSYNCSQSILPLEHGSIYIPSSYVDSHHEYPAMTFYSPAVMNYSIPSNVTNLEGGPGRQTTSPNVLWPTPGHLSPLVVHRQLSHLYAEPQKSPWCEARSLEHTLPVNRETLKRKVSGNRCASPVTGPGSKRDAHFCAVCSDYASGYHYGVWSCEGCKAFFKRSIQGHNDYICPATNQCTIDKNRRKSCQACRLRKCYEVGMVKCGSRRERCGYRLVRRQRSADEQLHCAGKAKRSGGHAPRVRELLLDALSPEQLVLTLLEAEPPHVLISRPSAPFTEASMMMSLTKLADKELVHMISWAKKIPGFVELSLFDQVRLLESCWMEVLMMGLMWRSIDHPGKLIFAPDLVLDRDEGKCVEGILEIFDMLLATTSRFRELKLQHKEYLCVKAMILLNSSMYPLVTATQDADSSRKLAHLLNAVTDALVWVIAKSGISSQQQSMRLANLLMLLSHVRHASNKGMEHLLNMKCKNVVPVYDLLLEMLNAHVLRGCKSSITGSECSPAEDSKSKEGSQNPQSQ

786-O cells [5] = test: transwell matrigel RCC cell invasion assay; format: cell-based, human; conditions: 10 μM
Experimental: (§4) The migration or invasion capability of RCC cells was determined using the transwell assay. In brief, 1×105 (invasion)/2-5×104 (migration) cells were harvested and seeded with serum-free media into the upper chamber with or without coated Matrigel with (BD Corning). The migrated or invaded cells were fixed by 4% paraformaldehyde and stained with 1% toluidine blue. Cell numbers were counted in five randomly chosen microscopic fields (100×) per membrane. When necessary, cells were treated with 10 μM of TGFβR-1 inhibitor (SB525334 Selleckchem) for 48 hr.
(§5) To further validate the ERβ→TGFβ1→pSMAD3 pathway, an interruption approach was applied by using TGFβR-1 inhibitors (10 μM) for the cell invasion assay in both 786-O and A498 cells (FIG. 5D).

A498 cells [6] = test: transwell matrigel RCC cell invasion assay; format: cell-based, human; conditions: 10 μM
Experimental: as §4, §5

pSMAD3 = test: Western blot after TGFβR-1 inhibitor treatment; format: cell-based, human; conditions: after treatment of TGFβR-1 inhibitor, FIG. 5D
Experimental: FIG. 5E illustrates the experimental setting for treatment of RCC with TGFβR-1 inhibitor and migration. RCC cells were cultured for 48 hr and then treated with 10 μM TGFβR-1 inhibitor for 6 hr. RCC cells were then trypsinized and seeded in the upper transwell (5×10^4/well) for 24 hr to determine the migration rate. […] Quantification of migrated cells was shown on the right panel.
The expressions of ERs were determined by the Western blot according to the previous study (Hsu et al., Carcinogenesis, 2014, 35:651-61). Rabbit anti-ERβ polyclonal antibody (GTX 110607 GeneTex Corporation), mouse anti-GAPDH monoclonal antibody (Santa Cruz Biotechnology), rabbit anti-TGFB1 polyclonal antibody (Abcam Biotechnology), and mouse anti-SMAD3 monoclonal antibody (Abcam Biotechnology) were all used and all at 1:1,000 dilution in blocking buffer. The immunopositive bands were visualized with an ECL chemiluminescent detection system (Thermo Scientific, Rockford, Ill.), and the images were transferred to the Bio-rad imaging system. The Western analysis was scored positive if the band of interest was present at the expected molecular weight appropriate for each marker protein. All analyses were done in duplicate.
as §5

advanced RCC = conditions: 1990's clinical trials; cited from earlier work
[7] = mice carrying 786-O tumors, ip every other day, 4 weeks

C[C@]12CC[C@@H]3c4ccc(O)cc4CC[C@H]3[C@@H]1CC[C@@H]2O [E2, 17β-estradiol]
cell growth (786-O cells [1]): significantly enhanced the cell growth
cell growth (A498 cells [2]): little E2 stimulating effect
cell migration (786-O cells [3]; 786-O sh-Luc control cells): could enhance
cell migration (786-O cells [3]; ERβ knockdown 786-O cells (786-O-shERβ)): little effect
cell migration (A498 cells [4]; 10 nM, A498-ERβ cells): further stimulated the migration

C[C@]12CC[C@@H]3c4ccc(O)cc4C[C@@H](CCCCCCCCC[S+]([O-])CCCC(F)(F)C(F)(F)F)[C@H]3[C@@H]1CC[C@@H]2O (stereo partly drawn) [ICI 182,780, 7α-[9-(4,4,5,5,5-pentafluoropentylsulfinyl)nonyl]estra-1,3,5(10)-triene-3,17β-diol]
body weights versus control (786-O tumors; [7]): higher body weights than control
mice that developed distal metastasis (786-O tumors; mice carrying 786-O tumors): around 17%
RCC tumor growth and metastasis (IVIS imaging, tumor weights) (786-O tumors; in vivo): inhibit the RCC tumor growth and metastasis
signs of toxicity or adverse treatment side effects (786-O tumors; mouse, in vivo, ip): without any signs of toxicity or adverse treatment side effects
estrogen induced ERβ transactivation on EREluciferase reporter activity (ERβ): effectively inhibit

Oc1ccc(-c2c(-c3ccccc3)nn3c(C(F)(F)F)cc(C(F)(F)F)nc23)cc1 [PHTPP]
body weights versus control (786-O tumors; [7]): higher body weights than control
signs of toxicity or adverse treatment side effects (786-O tumors; [7]): without any signs of toxicity or adverse treatment side effects
mice that developed distal metastasis (786-O tumors; mice carrying 786-O tumors): around 17%
RCC tumor growth and metastasis (IVIS imaging, tumor weights) (786-O tumors; in vivo): inhibit the RCC tumor growth and metastasis
estrogen induced ERβ transactivation on EREluciferase reporter activity (ERβ): effectively inhibit

Cc1cccc(-c2[nH]c(C(C)(C)C)nc2-c2ccc3nccnc3c2)n1 [TGFβR-1 inhibitor]
migration ability (786-O cells [3]; 10 μM for 48 hr, 786-O sh-Luc (higher ERβ)): dramatically attenuated
migration ability (A498 cells [4]; 10 μM for 48 hr, A498 ERβ (higher ERβ)): dramatically attenuated
ERβ-enhanced invasion (786-O cells [5]): suppression of ERβ-enhanced invasion
ERβ-enhanced invasion (A498 cells [6]): suppression of ERβ-enhanced invasion
pSMAD3 level by Western blot (pSMAD3): reduced pSMAD3

CC/C(=C(\c1ccccc1)c1ccc(OCCN(C)C)cc1)c1ccccc1 [tamoxifen]
inhibition of tumor size compared to the control group (786-O tumors; RCC in vivo, FIG. 9): about 40%
efficacy to inhibit ERβ activity (786-O tumors; compared to ICI 182,780 and PHTPP, FIG. 9): ~40%
RCC tumor growth and metastasis (IVIS imaging, tumor weights) (786-O tumors; in vivo): less effective on inhibiting RCC tumor
therapeutic efficacy in advanced RCC (advanced RCC): no significant therapeutic efficacy
